Experimental data reported in PubChem BioAssay AID2060500 (Molecular Pharmacology Branch, DTP, NCI, 2025).
pIC50: −log10 of the molar value.

Test system: 596521-263-R-J1-PDC complex spheroids, viability % of control
Assay: Anticancer human tumor 596521-263-R-J1-PDC patient-derived soft tissue sarcoma cell line growth inhibition [GQUAD]
Conditions: for pIC50: curve of first compound; for viability, T/C: stronger effect = lower value
Procedure, shortened: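 Tumor cells were grown as complex spheroids with HUVEC endothelial cells and mesenchymal stem cells as stroma. G-quadruplex stabilizers were combined with targeted agents over half-log dilutions from near the clinical Cmax, or from 10 microM.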

[1] = second compound 0.0316 µM, first compound 0.0316 µM
[2] = second compound 0.0316 µM, first compound 0.316 µM
[3] = second compound 0.1 µM, first compound 0.0316 µM
[4] = second compound 0.1 µM, first compound 0.316 µM
[5] = second compound 0.316 µM, first compound 0.0316 µM
[6] = second compound 0.316 µM, first compound 0.316 µM
[7] = second compound 1 µM, first compound 0.0316 µM
[8] = second compound 1 µM, first compound 0.316 µM
[9] = second compound 3.16 µM, first compound 0.0316 µM
[10] = second compound 3.16 µM, first compound 0.316 µM
[11] = second compound 10 µM, first compound 0.0316 µM
[12] = second compound 10 µM, first compound 0.316 µM
[13] = second compound 0.0316 µM, first compound 0.1 µM
[14] = second compound 0.0316 µM, first compound 1 µM
[15] = second compound 0.0316 µM, first compound 3.16 µM
[16] = second compound 0.0316 µM, first compound 10 µM
[17] = second compound 0.1 µM, first compound 0.1 µM
[18] = second compound 0.1 µM, first compound 1 µM
[19] = second compound 0.1 µM, first compound 3.16 µM
[20] = second compound 0.1 µM, first compound 10 µM
[21] = second compound 0.316 µM, first compound 0.1 µM
[22] = second compound 0.316 µM, first compound 1 µM
[23] = second compound 0.316 µM, first compound 3.16 µM
[24] = second compound 0.316 µM, first compound 10 µM
[25] = second compound 1 µM, first compound 0.1 µM
[26] = second compound 1 µM, first compound 1 µM
[27] = second compound 1 µM, first compound 3.16 µM
[28] = second compound 1 µM, first compound 10 µM
[29] = second compound 3.16 µM, first compound 0.1 µM
[30] = second compound 3.16 µM, first compound 1 µM
[31] = second compound 3.16 µM, first compound 3.16 µM
[32] = second compound 3.16 µM, first compound 10 µM
[33] = second compound 10 µM, first compound 0.1 µM
[34] = second compound 10 µM, first compound 1 µM
[35] = second compound 10 µM, first compound 3.16 µM
[36] = second compound 10 µM, first compound 10 µM
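Also: spheroids exposed to drugs for 7 days before viability reading.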
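For viability, T/C in this document: 100% = DMSO vehicle control viability.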

CC[C@@]1(O)C(=O)OCc2c1cc1n(c2=O)Cc2cc3c(CN(C)C)c(O)ccc3nc2-1 + Cc1cnc(CNC(=O)c2c(=O)c3ccc(N4CCCN(C)CC4)nc3n3c2sc2ccccc23)cn1
pIC50 (second compound 0.0316 µM): < 6.50 | pIC50 (second compound 0.1 µM): < 6.50 | pIC50 (second compound 0.316 µM): < 6.50 | pIC50 (second compound 1 µM): < 6.50 | pIC50 (second compound 3.16 µM): < 6.50 | pIC50 (second compound 10 µM): > 9.00 | viability, T/C (second compound 0.0316 µM, first compound 0.000999 µM): 107% | viability, T/C (second compound 0.0316 µM, first compound 0.00316 µM): 102% | viability, T/C (second compound 0.0316 µM, first compound 0.00999 µM): 78.7% | viability, T/C [1]: 66.5% | viability, T/C (second compound 0.0316 µM, first compound 0.0999 µM): 60.1% | viability, T/C [2]: 60.1% | viability, T/C (second compound 0.1 µM, first compound 0.000999 µM): 88.9% | viability, T/C (second compound 0.1 µM, first compound 0.00316 µM): 85% | viability, T/C (second compound 0.1 µM, first compound 0.00999 µM): 76.5% | viability, T/C [3]: 69.3% | viability, T/C (second compound 0.1 µM, first compound 0.0999 µM): 57.2% | viability, T/C [4]: 50.9% | viability, T/C (second compound 0.316 µM, first compound 0.000999 µM): 90.1% | viability, T/C (second compound 0.316 µM, first compound 0.00316 µM): 86.7% | viability, T/C (second compound 0.316 µM, first compound 0.00999 µM): 78.3% | viability, T/C [5]: 63% | viability, T/C (second compound 0.316 µM, first compound 0.0999 µM): 67.1% | viability, T/C [6]: 65.7% | viability, T/C (second compound 1 µM, first compound 0.000999 µM): 70.8% | viability, T/C (second compound 1 µM, first compound 0.00316 µM): 60.2% | viability, T/C (second compound 1 µM, first compound 0.00999 µM): 60.4% | viability, T/C [7]: 63.2% | viability, T/C (second compound 1 µM, first compound 0.0999 µM): 59.3% | viability, T/C [8]: 55.8% | viability, T/C (second compound 3.16 µM, first compound 0.000999 µM): 54.3% | viability, T/C (second compound 3.16 µM, first compound 0.00316 µM): 60.7% | viability, T/C (second compound 3.16 µM, first compound 0.00999 µM): 51.5% | viability, T/C [9]: 54.4% | viability, T/C (second compound 3.16 µM, first compound 0.0999 µM): 58% | viability, T/C [10]: 56.2% | viability, T/C (second compound 10 µM, first compound 0.000999 µM): 46.5% | viability, T/C (second compound 10 µM, first compound 0.00316 µM): 47.1% | viability, T/C (second compound 10 µM, first compound 0.00999 µM): 49.7% | viability, T/C [11]: 43.7% | viability, T/C (second compound 10 µM, first compound 0.0999 µM): 49.4% | viability, T/C [12]: 49%

COc1cc(C2c3cc4c(cc3C(OC3OC5COC(C)OC5C(O)C3O)C3COC(=O)C23)OCO4)cc(OC)c1O (stereo not drawn) + Cc1cnc(CNC(=O)c2c(=O)c3ccc(N4CCCN(C)CC4)nc3n3c2sc2ccccc23)cn1
pIC50 (second compound 0.0316 µM): 5.57 | pIC50 (second compound 0.1 µM): < 5.00 | pIC50 (second compound 0.316 µM): 5.55 | pIC50 (second compound 1 µM): 5.78 | pIC50 (second compound 3.16 µM): 5.75 | pIC50 (second compound 10 µM): > 7.50 | viability, T/C [1]: 99.8% | viability, T/C [13]: 83.6% | viability, T/C [2]: 77.8% | viability, T/C [14]: 53.8% | viability, T/C [15]: 50.7% | viability, T/C [16]: 42.4% | viability, T/C [3]: 91.8% | viability, T/C [17]: 92% | viability, T/C [4]: 75.8% | viability, T/C [18]: 52% | viability, T/C [19]: 56.6% | viability, T/C [20]: 45.5% | viability, T/C [5]: 76.6% | viability, T/C [21]: 73.3% | viability, T/C [6]: 81.6% | viability, T/C [22]: 58% | viability, T/C [23]: 50.3% | viability, T/C [24]: 47.8% | viability, T/C [7]: 65.9% | viability, T/C [25]: 57.5% | viability, T/C [8]: 55.5% | viability, T/C [26]: 52.2% | viability, T/C [27]: 51.1% | viability, T/C [28]: 38.1% | viability, T/C [9]: 56.3% | viability, T/C [29]: 52.1% | viability, T/C [10]: 55% | viability, T/C [30]: 46.6% | viability, T/C [31]: 50.4% | viability, T/C [32]: 33.1% | viability, T/C [11]: 48.8% | viability, T/C [33]: 37.6% | viability, T/C [12]: 47.1% | viability, T/C [34]: 40.7% | viability, T/C [35]: 43.5% | viability, T/C [36]: 19.4%

COc1cccc2c1C(=O)c1c(O)c3c(c(O)c1C2=O)CC(O)(C(=O)CO)CC3OC1CC(N)C(O)C(C)O1 (stereo not drawn) + Cc1cnc(CNC(=O)c2c(=O)c3ccc(N4CCCN(C)CC4)nc3n3c2sc2ccccc23)cn1
pIC50 (second compound 0.0316 µM): 6.12 | pIC50 (second compound 0.1 µM): 6.11 | pIC50 (second compound 0.316 µM): 6.10 | pIC50 (second compound 1 µM): 6.29 | pIC50 (second compound 3.16 µM): 6.47 | pIC50 (second compound 10 µM): > 7.50 | viability, T/C [1]: 98.3% | viability, T/C [13]: 71.2% | viability, T/C [2]: 66.6% | viability, T/C [14]: 52.3% | viability, T/C [15]: 26.5% | viability, T/C [16]: 4.29% | viability, T/C [3]: 87.2% | viability, T/C [17]: 73.8% | viability, T/C [4]: 57.1% | viability, T/C [18]: 51.1% | viability, T/C [19]: 31% | viability, T/C [20]: 4.25% | viability, T/C [5]: 78.7% | viability, T/C [21]: 70.4% | viability, T/C [6]: 55.5% | viability, T/C [22]: 51.4% | viability, T/C [23]: 29% | viability, T/C [24]: 3.29% | viability, T/C [7]: 69.6% | viability, T/C [25]: 53% | viability, T/C [8]: 50.7% | viability, T/C [26]: 47.2% | viability, T/C [27]: 30.7% | viability, T/C [28]: 2.51% | viability, T/C [9]: 50.7% | viability, T/C [29]: 49% | viability, T/C [10]: 52.7% | viability, T/C [30]: 45.2% | viability, T/C [31]: 23.8% | viability, T/C [32]: 0.29% | viability, T/C [11]: 46.8% | viability, T/C [33]: 49.5% | viability, T/C [12]: 46.4% | viability, T/C [34]: 44.3% | viability, T/C [35]: 11.4% | viability, T/C [36]: 0.27%

Nc1ccn(C2OC(CO)C(O)C2(F)F)c(=O)n1 (stereo not drawn) + Cc1cnc(CNC(=O)c2c(=O)c3ccc(N4CCCN(C)CC4)nc3n3c2sc2ccccc23)cn1
pIC50 (second compound 0.0316 µM): 7.10 | pIC50 (second compound 0.1 µM): 6.51 | pIC50 (second compound 0.316 µM): 7.17 | pIC50 (second compound 1 µM): 7.11 | pIC50 (second compound 3.16 µM): > 7.50 | pIC50 (second compound 10 µM): > 7.50 | viability, T/C [1]: 58.3% | viability, T/C [13]: 44.5% | viability, T/C [2]: 49.4% | viability, T/C [14]: 51% | viability, T/C [15]: 47.4% | viability, T/C [16]: 46.8% | viability, T/C [3]: 60.1% | viability, T/C [17]: 51% | viability, T/C [4]: 53.3% | viability, T/C [18]: 44.7% | viability, T/C [19]: 38.6% | viability, T/C [20]: 35.3% | viability, T/C [5]: 61.2% | viability, T/C [21]: 43.9% | viability, T/C [6]: 43.9% | viability, T/C [22]: 49.8% | viability, T/C [23]: 41.6% | viability, T/C [24]: 41.8% | viability, T/C [7]: 59.6% | viability, T/C [25]: 47.6% | viability, T/C [8]: 42% | viability, T/C [26]: 47.6% | viability, T/C [27]: 52.2% | viability, T/C [28]: 43% | viability, T/C [9]: 47.9% | viability, T/C [29]: 41.9% | viability, T/C [10]: 42.2% | viability, T/C [30]: 40.2% | viability, T/C [31]: 40.9% | viability, T/C [32]: 42.6% | viability, T/C [11]: 47% | viability, T/C [33]: 35.5% | viability, T/C [12]: 38.9% | viability, T/C [34]: 39.6% | viability, T/C [35]: 42.7% | viability, T/C [36]: 23.4%
